Source: the supplement of paper PMC10307832

Assays:
Assay in all cases: relative viability (nuclei count vs DMSO), 5 days (fraction); higher = more cells survive
[1] = compound: NS(=O)(=O)OC[C@@H]1C[C@@H](n2ccc3c(N[C@H]4CCc5ccccc54)ncnc32)C[C@@H]1O [MLN4924] + O=C(c1cc(Cc2n[nH]c(=O)c3ccccc23)ccc1F)N1CCN(C(=O)C2CC2)CC1 [Olaparib] (partner 8 µM)
Outline: (§1)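 After 5 days of treatment, lung cancer cells in 1536-well plates were fixed and stained in a single step (final 0.05% Triton X-100, 1% formaldehyde, 1 ug/ml Hoechst) and their nuclei counted on 4× images. Treatment had been applied by pin tool the day after seeding as one drug alone or as a fixed anchor-drug dose with five library-drug doses (not always all listed) in √10 steps. Relative viability is the nuclei count of treated wells divided by that of vehicle wells, and values are medians of duplicate plates.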

[2] = compound: C1CC(C1)(C(=O)O)C(=O)O.[NH2-].[NH2-].[Pt+2] [Carboplatin] + NC(=O)Nc1cc(-c2cccc(F)c2)sc1C(=O)N[C@H]1CCCNC1 [AZD7762] (partner 0.2 µM)
Outline: as §1

[3] = compound: CC[C@H](C)N1C=C(C2=C(C=C(C=C21)C3=CN=C(C=C3)N4CCNCC4)C(=O)NCC5=C(C=C(NC5=O)C)C)C [GSK126] + NC(=O)Nc1cc(-c2cccc(F)c2)sc1C(=O)N[C@H]1CCCNC1 [AZD7762] (partner 0.2 µM)
Outline: as §1

[4] = compound: C1CC(C1)(C(=O)O)C(=O)O.[NH2-].[NH2-].[Pt+2] [Carboplatin] + Cc1nc(Nc2ncc(C(=O)Nc3c(C)cccc3Cl)s2)cc(N2CCN(CCO)CC2)n1 [Dasatinib] (partner 0.075 µM)
Outline: as §1

Cell Line	relative viability ([1]; first compound 0.04 µM)	relative viability ([1]; first compound 0.1265 µM)	relative viability ([1]; first compound 0.4 µM)	relative viability ([1]; first compound 1.265 µM)	relative viability ([1]; first compound 4 µM)	relative viability ([2]; first compound 0.08 µM)	relative viability ([2]; first compound 0.253 µM)	relative viability ([2]; first compound 0.8 µM)	relative viability ([2]; first compound 2.53 µM)	relative viability ([2]; first compound 8 µM)	relative viability ([3]; first compound 0.08 µM)	relative viability ([3]; first compound 0.253 µM)	relative viability ([3]; first compound 0.8 µM)	relative viability ([3]; first compound 2.53 µM)	relative viability ([3]; first compound 8 µM)	relative viability ([4]; first compound 0.08 µM)	relative viability ([4]; first compound 0.253 µM)	relative viability ([4]; first compound 0.8 µM)	relative viability ([4]; first compound 2.53 µM)	relative viability ([4]; first compound 8 µM)
NCI-H322M	0.708	0.511	0.498	0.372	0.427	0.598	0.548	0.553	0.547	0.428	0.538	0.531	0.536	0.647	0.53	0.281	0.243	0.255	0.256	0.257
NCI-H2085	0.837	0.747	0.868	0.485	0.363	1.02	1.01	0.973	0.995	0.909	1.03	0.973	0.927	0.907	0.957	0.243	0.293	0.243	0.239	0.255
PC-3 [JPC-3]	1.16	1.05	0.298	0.436	0.452	1.04	0.732	0.836	0.706	0.553	0.855	0.855	0.957	0.871	0.766	1	1.09	0.985	0.95	0.864
NCI-H1355	0.688	0.516	0.525	0.306	0.186	0.98	0.877	0.626	0.791	0.729	0.814	0.658	0.688	0.746	0.479	0.729	0.759	0.776	0.667	0.656
NCI-H838	0.434	0.243	0.197	0.124	0.136	1.09	0.957	0.837	0.869	0.758	1.1	0.932	0.873	0.916	0.857	0.306	0.3	0.331	0.319	0.275
NCI-H1755	0.859	0.544	0.491	0.254	0.171	0.445	0.477	0.491	0.465	0.419	0.468	0.446	0.395	0.461	0.412	0.451	0.441	0.395	0.462	0.452
NCI-H1651	0.176	0.182	0.176	0.138	0.0847	0.539	0.537	0.447	0.456	0.436	0.534	0.416	0.467	0.537	0.364	0.436	0.397	0.344	0.435	0.216
NCI-H650	0.244	0.159	0.17	0.137	0.129	0.985	0.948	0.778	0.863	0.721	0.946	1.11	0.964	1.01	1.16	0.472	0.47	0.399	0.423	0.371
LK-2	0.4	0.312	0.234	0.151	0.137	0.712	0.582	0.341	0.412	0.497	0.402	0.364	0.401	0.623	0.293	0.275	0.252	0.295	0.197	0.379
HCC-366	0.341	0.352	0.272	0.0846	0.0262	0.442	0.256	0.155	0.126	0.0971	0.33	0.251	0.201	0.293	0.177	0.609	0.619	0.624	0.594	0.403
PC-14	0.188	0.129	0.0764	0.0624	0.0504	0.541	0.316	0.361	0.314	0.202	0.335	0.314	0.35	0.417	0.312	0.288	0.292	0.261	0.131	0.068
ChaGo-K-1	0.279	0.205	0.227	0.153	0.147	0.935	0.866	0.891	0.817	0.639	0.881	0.87	0.836	0.893	0.874	0.559	0.61	0.612	0.477	0.309
NCI-H441	0.567	0.426	0.296	0.143	0.169	1.26	1.11	0.954	0.995	0.804	1.29	0.965	1.03	1.1	1.08	0.665	0.798	0.546	0.627	0.47
NCI-H1395	0.415	0.426	0.367	0.339	0.364	0.403	0.39	0.406	0.386	0.405	0.392	0.381	0.399	0.399	0.342	0.423	0.367	0.392	0.42	0.516
